This experiment addresses Casein kinase I isoform gamma-1 (Homo sapiens) (UniProt Q9HCP0). The experiment can be described thus: inhibition of human CK1 gamma 1 activity – biochemical, Z'-LYTE, FRET, protease-coupled, direct format, dose response (AID 1671246). The note with it: recombinant CSNK1G1.

Sequence of Casein kinase I isoform gamma-1 (Homo sapiens) (Q9HCP0 whole entry, looked up, canonical isoform): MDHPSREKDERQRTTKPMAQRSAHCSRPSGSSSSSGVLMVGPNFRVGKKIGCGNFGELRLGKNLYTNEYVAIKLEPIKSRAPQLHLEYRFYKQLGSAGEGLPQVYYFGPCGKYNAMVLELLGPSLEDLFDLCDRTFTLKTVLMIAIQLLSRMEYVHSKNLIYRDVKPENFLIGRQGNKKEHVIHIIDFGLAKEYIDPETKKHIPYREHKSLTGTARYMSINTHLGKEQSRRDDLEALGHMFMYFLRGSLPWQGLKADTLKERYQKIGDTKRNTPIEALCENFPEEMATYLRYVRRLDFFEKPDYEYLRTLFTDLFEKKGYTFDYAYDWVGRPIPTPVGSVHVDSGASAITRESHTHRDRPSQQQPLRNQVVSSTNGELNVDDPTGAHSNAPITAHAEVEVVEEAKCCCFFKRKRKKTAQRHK

Take `CN1C(=O)C2(Cc3cn(C45CC67SSC(CO)(C(=O)N6C4Nc4ccccc45)N(C)C7=O)c4ccccc34)SSC1(CO)C(=O)N2C` (stereo unspecified): the IC50 – broadly, the concentration that gives 50% inhibition – is 109 nM.
